From patent US20040116336A1, “Peptide derivatives” (priority 2002, published 2004)
Read-outs that look alike come from different tables or passages of the source. Starred links: 1 amine or outer side, 2 acyl side, 3 side chain; linkers in the order of their positions; H or OH if unused. Non-standard residues stand in square brackets, D forms with d. Residues, ends and D or L forms follow the SMILES beside them. *: point of attachment. X1 = O=C([C@H](Cc1ccc2ccc3cccc4ccc1c2c34)N[*:1])[*:2]; Phe(4-Cl) = N[C@@H](Cc1ccc(Cl)cc1)C(=O)O; 2Nal = N[C@@H](Cc1ccc2ccccc2c1)C(=O)O; Cha = N[C@@H](CC1CCCCC1)C(=O)O; Morpholide = C1CN(*)CCO1

What was measured:
[1] = target: T1, APJ (Homo sapiens, UniProt P35414); assay: Receptor binding assay-1 (125I-labeled compound in Reference Example 1, CHO-A10 membrane fraction); conditions: 125I-labeled compound in Reference Example 1 at 100 pM
T1 construct: expressed in transfected cells; host or cells: CHO (CHO-A10; clone 6 for the cAMP assay)
T1 sequence (P35414 1-380): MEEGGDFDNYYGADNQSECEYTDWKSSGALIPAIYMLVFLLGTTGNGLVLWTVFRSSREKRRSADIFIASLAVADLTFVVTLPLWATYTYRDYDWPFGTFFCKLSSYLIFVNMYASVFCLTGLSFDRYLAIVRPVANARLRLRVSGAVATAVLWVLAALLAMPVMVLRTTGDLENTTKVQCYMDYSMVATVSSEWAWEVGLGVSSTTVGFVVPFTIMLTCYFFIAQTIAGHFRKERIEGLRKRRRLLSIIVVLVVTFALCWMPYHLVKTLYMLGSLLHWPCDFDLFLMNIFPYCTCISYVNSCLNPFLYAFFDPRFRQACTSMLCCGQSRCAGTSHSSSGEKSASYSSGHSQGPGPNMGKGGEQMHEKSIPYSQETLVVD
Method: (§1) This product was mixed with an equal volume of an assay buffer (50 mM Tris-HCl/pH 7.5, 5 mM EDTA, 0.5 mM PMSF, 20 μg/ml leupeptin, 0.1 μg/ml pepstatin A, 4 μg/ml E-64 (Peptide Research Laboratory, Co.), 0.1% bovine serum albumin) and stored at −30° C. before use.
(§2) CHO-A10 cells were cultured, recovered with PBS containing 5 mM EDTA from a culture vessel, and suspended in the above-mentioned assay buffer not containing bovine serum albumin. The cells were homogenized 3 times at 12,000 rpm for 15 seconds by a Polytron homogenizer (manufactured by Kinematica Inc.) and then centrifuged (1000×g, 4° C., 10 minutes), and the supernatant was recovered. The precipitates were subjected again to the same procedure as above, and the respective supernatants were combined and centrifuged at 100,000×g, 4° C. for 1 hour, to recover precipitates (membrane fraction). The membrane fraction was suspended again in a small amount of the buffer, homogenized with a Teflon homogenizer and stored at −80° C. before use.
(§3) Binding assay was carried out under the following conditions. […] Measurement of non-specific binding was carried out using a well containing 1 μM unlabeled compound in place of the test sample. After the incubation was finished, a cell harvester (Packard) adapted to 96 wells and a filter unit (GF/C, Packard) were used for separation thereby capturing the membrane fraction on the filter. After the filter was sufficiently dried, Microcinti 0 (Packard) was added thereto, and using Top Count (Packard), the amount of the labeled material captured together with the membrane fraction on the filter was measured.

[2] = target: T1, APJ; assay: Receptor binding assay-2 (compound in Reference Example 2 used)
Method: as §1, §2, §3

[3] = target: T1, APJ; assay: Inhibitory activity on forskolin-stimulated cAMP production in CHO-A10 clone 6 cells; format: cell-based
Method: Measurement of an Inhibitory Activity on Forskolin-Stimulated cAMP Production
Hanks' balanced salt solution (HBSS) containing 0.2 mM 3-isobutyl-1-methylxanthine (IBMX) and 0.05% bovine serum albumin was prepared as an assay buffer, and each well was washed twice with 500 μl assay buffer and pre-incubated at 37° C. for 30 minutes. Further, each well was washed once with 500 μl assay buffer, and a sample dissolved in the assay buffer containing 1 μM forskolin was added at a volume of 500 μl/well and incubated at 37° C. for 30 minutes. Wells incubated with the assay buffer not containing forskolin were prepared in the same manner in order to determine the basal level of cellular cAMP production, while wells incubated with the assay buffer containing forskolin were also prepared in order to determine the maximum level of cAMP production stimulated with forskolin. After incubation was finished, each well was washed once with 500 μl assay buffer, and 500 μl lysis buffer 1B attached to a cAMP EIA system from Amersham was added to each well, to extract cAMP. According to the protocol of the kit, 100 μl of each extract was used to determine the level of cAMP. For the inhibitory activity of the sample on cAMP production, the difference (inhibited cAMP production) between the maximum level and the level of cAMP in the sample-containing wells was determined, and the inhibitory activity was expressed as percentage relative to the increased level of cAMP production stimulated with forskolin (that is, the difference between the maximum level and basal level), and from this dose-reaction curve, the EC50 was determined.

[4] = compound in Reference Example 2 used as ligand, read-out: IC50

| Compound | IC50 ([1]; room temperature […]) | IC50 [2, 4] | EC50 ([3]; read-out: EC50) | IC50 ([1]; room temperature 1.5 hours) | IC50 [2] | EC50 [3] |
| --- | --- | --- | --- | --- | --- | --- |
| CC(C)C[C@H](NC(=O)[C@H](CCCNC(=N)N)NC(=O)[C@@H]1CCCN1C(=O)[C@@H](N)CCCNC(=N)N)C(=O)N[C@@H](Cc1ccccc1)C(=O)N[C@@H](Cc1c[nH]cn1)C(=O)N[C@@H](CCCCN)C(=O)NCC(=O)N1CCC[C@H]1C(=O)N[C@@H](CC1CCCCC1)C(=O)N1CCC[C@H]1C(=O)N[C@@H](Cc1ccccc1)C(=O)O [Compound in Ex. 15] (H-RPRLFHKGP[Cha]PF-OH; N-terminus and C-terminus assumed) | 8 nM | 0.13 nM | 0.46 nM |  |  |  |
| CC(C)C[C@H](NC(=O)[C@H](CCCNC(=N)N)NC(=O)[C@@H]1CCCN1C(=O)[C@@H](N)CCCNC(=N)N)C(=O)N[C@@H](Cc1ccccc1)C(=O)N[C@@H](Cc1c[nH]cn1)C(=O)N[C@@H](CCCCN)C(=O)NCC(=O)N1CCC[C@H]1C(=O)N[C@@H](CC1CCCCC1)C(=O)N1CCC[C@H]1C(=O)N[C@@H](Cc1ccc(Cl)cc1)C(=O)O [Compound in Ex. 13] (H-RPRLFHKGP[Cha]P[Phe(4-Cl)]-OH; N-terminus and C-terminus assumed) | 2.7 nM | 0.29 nM | 1 nM |  |  |  |
| CC(C)C[C@H](NC(=O)[C@H](CCCNC(=N)N)NC(=O)[C@@H]1CCCN1C(=O)[C@H](CCCNC(=N)N)NC(=O)[C@H](CCC(N)=O)NC(=O)[C@H](CCCNC(=N)N)NC(=O)[C@@H](N)CCCNC(=N)N)C(=O)N[C@@H](CO)C(=O)N[C@@H](C)C(=O)N[C@@H](CCCNC(=N)N)C(=O)NCC(=O)N1CCC[C@H]1C(=O)N[C@@H](CC1CCCCC1)C(=O)O [Compound in Ex. 6] | 1.4 nM | 0.046 nM | 0.55 nM |  |  |  |
| CC(C)C[C@H](NC(=O)[C@H](CCCNC(=N)N)NC(=O)[C@@H]1CCCN1C(=O)[C@H](CCCNC(=N)N)NC(=O)[C@H](CCC(N)=O)NC(=O)[C@H](CCCNC(=N)N)NC(=O)[C@@H](N)CCCNC(=N)N)C(=O)N[C@@H](CO)C(=O)N[C@@H](Cc1c[nH]cn1)C(=O)N[C@@H](CCCCN)C(=O)NCC(=O)N1CCC[C@H]1C(=O)N[C@@H](CC1CCCCC1)C(=O)N1CCC[C@H]1C(=O)N[C@@H](Cc1ccc(Cl)cc1)C(=O)O [Compound in Ex. 2] | 0.47 nM | 0.33 nM | 0.53 nM |  |  |  |
| CSCC[C@H](NC(=O)[C@@H]1CCCN1C(=O)CNC(=O)[C@H](CCCNC(=N)N)NC(=O)[C@H](C)NC(=O)[C@H](CO)NC(=O)[C@H](CC(C)C)NC(=O)[C@H](CCCNC(=N)N)NC(=O)[C@@H]1CCCN1C(=O)[C@H](CCCNC(=N)N)NC(=O)[C@H](CCC(N)=O)NC(=O)[C@H](CCCNC(=N)N)NC(=O)[C@@H](N)CCCNC(=N)N)C(=O)O [Compound in Ex. 18] | 2.5 nM | 0.023 nM | 0.18 nM |  |  |  |
| CC(C)C[C@H](NC(=O)[C@H](CCCNC(=N)N)NC(=O)[C@@H]1CCCN1C(=O)[C@@H](N)CCCNC(=N)N)C(=O)N[C@@H](CO)C(=O)N[C@@H](C)C(=O)N[C@@H](CCCNC(=N)N)C(=O)NCC(=O)N1CCC[C@H]1C(=O)N[C@@H](CC1CCCCC1)C(=O)N1CCC[C@H]1C(=O)N[C@@H](Cc1ccccc1)C(=O)O [Compound in Ex. 11] (H-RPRLSARGP[Cha]PF-OH; N-terminus and C-terminus assumed) | 2.2 nM | 0.084 nM | 0.59 nM |  |  |  |
| CSCC[C@H](NC(=O)[C@@H]1CCCN1C(=O)CNC(=O)[C@H](CCCNC(=N)N)NC(=O)[C@H](C)NC(=O)[C@H](CO)NC(=O)[C@H](CC(C)C)NC(=O)[C@H](CCCNC(=N)N)NC(=O)[C@@H]1CCCN1C(=O)[C@@H](N)CCCNC(=N)N)C(=O)N1CCC[C@H]1C(=O)N[C@@H](Cc1ccc(Cl)cc1)C(=O)O [Compound in Ex. 3] (H-RPRLSARGPMP[Phe(4-Cl)]-OH; N-terminus and C-terminus assumed) | 0.91 nM | 0.036 nM | 0.32 nM |  |  |  |
| CC(C)C[C@H](NC(=O)[C@H](CCCNC(=N)N)NC(=O)[C@@H]1CCCN1C(=O)[C@@H](N)CCCNC(=N)N)C(=O)N[C@@H](CO)C(=O)N[C@@H](C)C(=O)N[C@@H](CCCNC(=N)N)C(=O)NCC(=O)N1CCC[C@H]1C(=O)N[C@@H](CC1CCCCC1)C(=O)N1CCC[C@H]1C(=O)N[C@@H](Cc1ccc(Cl)cc1)C(=O)O [Compound in Ex. 5] (H-RPRLSARGP[Cha]P[Phe(4-Cl)]-OH) | 1.2 nM | 0.13 nM | 0.51 nM |  |  |  |
| CSCC[C@H](NC(=O)[C@@H]1CCCN1C(=O)CNC(=O)[C@H](CCCCN)NC(=O)[C@H](Cc1c[nH]cn1)NC(=O)[C@H](Cc1ccccc1)NC(=O)[C@H](CC(C)C)NC(=O)[C@H](CCCNC(=N)N)NC(=O)[C@@H]1CCCN1C(=O)[C@@H](N)CCCNC(=N)N)C(=O)N1CCC[C@H]1C(=O)N[C@@H](Cc1ccc(Cl)cc1)C(=O)O [Compound in Ex. 16] (H-RPRLFHKGPMP[Phe(4-Cl)]-OH; N-terminus and C-terminus assumed) | 8 nM | 0.066 nM | 0.38 nM |  |  |  |
| CSCC[C@H](NC(=O)[C@@H]1CCCN1C(=O)CNC(=O)[C@H](CCCCN)NC(=O)[C@H](Cc1c[nH]cn1)NC(=O)[C@H](CO)NC(=O)[C@H](CC(C)C)NC(=O)[C@H](CCCNC(=N)N)NC(=O)[C@@H]1CCCN1C(=O)[C@@H](N)CCCNC(=N)N)C(=O)N1CCC[C@H]1C(=O)N[C@@H](Cc1ccc(Cl)cc1)C(=O)O [Compound in Ex. 8] |  | 0.039 nM | 0.34 nM | 13 nM |  |  |
| H-RPRLSARGPMPF-OH [Compound in Ex. 24] | 27 nM | 0.057 nM | 0.25 nM |  |  |  |
| CC(C)C[C@H](NC(=O)[C@H](CCCNC(=N)N)NC(=O)[C@@H]1CCCN1C(=O)[C@@H](N)CCCNC(=N)N)C(=O)N[C@@H](CO)C(=O)N[C@@H](C)C(=O)N[C@@H](CCCNC(=N)N)C(=O)NCC(=O)N1CCC[C@H]1C(=O)N[C@@H](CC1CCCCC1)C(=O)N1CCC[C@H]1C(=O)N[C@@H](Cc1ccc2ccc3cccc4ccc1c2c34)C(=O)O [Compound in Ex. 61] (H-RPRLSARGP[Cha]P[X1]-OH; N-terminus and C-terminus assumed) |  |  |  |  | 0.56 nM | 2.2 nM |
| CSCC[C@H](NC(=O)[C@@H]1CCCN1C(=O)CNC(=O)[C@H](CCCCN)NC(=O)[C@H](Cc1c[nH]cn1)NC(=O)[C@H](CO)NC(=O)[C@H](CC(C)C)NC(=O)[C@H](CCCNC(=N)N)NC(=O)[C@@H]1CCCN1C(=O)[C@@H](N)CCCNC(=N)N)C(=O)N[C@@H](Cc1ccc2ccccc2c1)C(=O)O [Compound in Ex. 40] (H-RPRLSHKGPM[2Nal]-OH) |  | 0.61 nM | 0.37 nM |  |  |  |
| CC(C)C[C@H](NC(=O)[C@H](CCCNC(=N)N)NC(=O)[C@@H]1CCCN1C(=O)[C@H](CCCNC(=N)N)NC(=O)[C@H](CCC(N)=O)NC(=O)[C@H](CCCNC(=N)N)NC(=O)[C@@H](N)CCCNC(=N)N)C(=O)N[C@@H](CO)C(=O)N[C@@H](C)C(=O)N[C@@H](CCCNC(=N)N)C(=O)NCC(=O)N1CCOCC1 [Compound in Ex. 52] (H-RRQRPRLSARG-Morpholide; N-terminus assumed) |  | 0.26 nM | 1.2 nM |  |  |  |
| CSCC[C@H](NC(=O)[C@@H]1CCCN1C(=O)CNC(=O)[C@H](CCCCN)NC(=O)[C@H](Cc1c[nH]cn1)NC(=O)[C@H](CO)NC(=O)[C@H](CC(C)C)NC(=O)[C@H](CCCNC(=N)N)NC(=O)[C@@H]1CCCN1C(=O)[C@@H](N)CCCNC(=N)N)C(=O)N1CCC[C@H]1C(=O)N[C@@H](Cc1ccc2ccccc2c1)C(=O)O [Compound in Ex. 32] |  | 0.35 nM | 0.1 nM |  |  |  |
